# Reference: US8633224B2, “Hemiasterlin derivatives and uses thereof in the treatment of cancer” (Eisai Co., Ltd., priority 2002, dated 2014)
# System: human lung carcinoma, human colon carcinoma and human melanoma
# Test: not given
# Conditions: cited from earlier work
row,SMILES,antitumor activity against several cell lines
1,CN[C@H](C(=O)N[C@H](C(=O)N(C)[C@H](/C=C(\C)C(=O)O)C(C)C)C(C)(C)C)C(C)(C)c1cn(C)c2ccccc12 [Hemiasterlin],exhibited antitumor activity

# System: human cancer cells
# Test: in vitro and in vivo screening panel (growth inhibition, MDR, cytotoxicity, mouse serum stability, mitotic block reversibility, tumor xenograft)
# Conditions: properties (i)-(vii) of b364/b365
# Method: In certain embodiments, compounds of the invention were tested for in vitro and in vivo activity. Screening methods included standard in vitro cell growth inhibition assays using a panel of human cancer cell lines, a U937 (ATCC accession number CRL 1593) mitotic block reversibility assay, mouse serum stability assay, MDR assay, and cytotoxicity assay. In certain other embodiments, compounds of the invention were evaluated in tumor xenograft in vivo growth inhibition assays.
# Cultured human cancer cells (including breast, prostate, colon, lung, leukemia, lymphoma and other) were plated in 96-well plates and grown in the continuous presence of test compounds for 72 or 96 hours. The human cell lines used in this cell growth inhibition assay, include, but are not limited to, the following solid tumor cell lines and non-solid tumor cell lines: DLD-1 colon cancer cells (ATCC accession number CCL-221), DU 145 prostate cancer cells (ATCC accession number HTB-81), H460 non small cell lung cancer, HCT-15 colon cancer cells (ATCC accession number CCL-225), HEL erythroleukemia cells, HL-60 promyelocytic leukemia cells (ATCC accession number CCL-240), K562 leukemia (ATCC accession number CCL-243), LOX melanoma, MDA-MB-435 breast cancer cells, U937 lymphoma cells (ATCC accession number CRL 1593), PANC-1 pancreatic cancer (ATCC accession number CRL-1469), HCC-2998 colon cancer (NCI-Frederick Cancer DCTD Tumor/Cell Line Repository), HCT 116 colon cancer (ATCC accession number CCL-247), HT-29 colon cancer (ATCC accession number HTB-38), LoVo colon cancer (ATCC accession number CCL-229), SW-480 colon cancer (ATCC accession number CCL-228), SW-620 colon cancer (ATCC accession number CCL-227) and COLO-205 colon cancer (ATCC accession number CCL-222). For monolayer cultures, growth was assessed using modifications (Amin et al, Cancer Res., 47: 6040-6045, 1987) of a methylene blue-based microculture assay (Finlay et al, Anal. Biochem., 139: 272-277, 1984). Absorbances at 620 and 405 nm were measured on a Titertek Multiscan MCC/340 plate reader and absorbances at 405 nm were subtracted from absorbances at 620 nm. For suspension cultures, growth was assessed using a 3-(4,5-dimethylthiazol-2-yl)-2,5-diphenyl tetrazolium bromide-based assay (Mosmann et al, J. Immunol. Methods, 65: 55-63, 1983) modified as follows. After 4 days of incubation with test compounds, sterile-filtered 3-(4,5-dimethylthiazol-2-yl)-2,5-diphenyl tetrazolium bromide was added to each well (final concentration, 0.5 mg/ml), and plates were incubated at 37° C. for 4 h. Acid-isopropanol (0.1 N HCl in isopropanol, […]) was then added to each well, and the resultant formazan crystals were dis-solved by gentle mixing. Absorbances at 540 nm were measured on a Titertek Multiscan MCC/340 plate reader.
# Briefly, U937 (ATCC accession number […]) were exposed to various concentration of compounds for 12 hours. The compounds were washed away and the cells were allowed to recover for an additional 10 hours. The cells were collected by centrifugation and fixed overnight in 70% ethanol. The cells were washed in PBS, incubated with RNase A and stained with propidium iodide. Single channel flow cytometry was performed on a Becton Dickinson FACScan; the collection and analysis of data were performed using Becton Dickinson CELLQuest software. Doublet events were eliminated from analyses by proper gating on FL2-W/FL2-A primary plots before histogram analysis of DNA content (measured as FL2-A).
# This is a modification of the standard cell growth inhibition assays described above. Two cultured human cancer cell lines were used: human uterine sarcoma MDR negative MES-SA cells (ATCC accession number CRL-1976) and human uterine sarcoma MDR-positive MES-SA/Dx5 cells (ATCC accession number CRL-1977). Cells were plated in a 96-well microtiter plates at a density of 7500 cells/well. The cells were incubated in the presence or absence of test compounds for 96 hours.
row,SMILES,"desired properties (growth inhibition IC50, resistance ratio, cytotoxicity in non-dividing normal cells, mouse serum stability, mitotic block reversibility, tumor regression, tumor growth inhibition)"
1,CCC(C)N1CCCCC1C(=O)NC(C(=O)N(C)[C@H](/C=C(\C)C(=O)O)C(C)C)C(C)C (stereo in doubt) [ER-808824],exhibiting desired properties
2,C/C(=C\[C@H](C(C)C)N(C)C(=O)[C@@H](NC(=O)[C@H]1CCCCN1C(C)C)C(C)(C)C)C(=O)O [ER-807974],exhibiting desired properties
3,CN[C@H](C(=O)N[C@H](C(=O)N(C)[C@H](CN(C)CC(=O)N1CCC[C@H]1C(=O)OC)C(C)C)C(C)(C)C)C(C)(C)c1ccccc1 [ER-806925],exhibiting desired properties
4,CN[C@H](C(=O)N[C@H](C(=O)N(C)[C@H](/C=C(\C)C(=O)N1CCC[C@H]1C(=O)OC)C(C)C)C(C)(C)C)C(C)(C)c1ccccc1 [ER-805736],exhibiting desired properties
5,CN[C@H](C(=O)N[C@H](C(=O)N(C)[C@H](/C=C(\C)C(=O)O)C(C)C)C(C)(C)C)C(C)(C)c1ccc(OCc2ccccc2)cc1 [ER-805913],exhibiting desired properties
6,CN[C@H](C(=O)N[C@H](C(=O)N(C)[C@H](CN1CCC[C@H]1C(=O)N1CCC[C@H]1C(N)=O)C(C)C)C(C)(C)C)C(C)(C)c1ccccc1 [ER-807328],exhibiting desired properties
7,"C/C(=C\[C@H](C(C)C)N(C)C(=O)[C@@H](NC(=O)[C@H]1CCCCN1C(C)C(C)C)C(C)(C)C)C(=O)O (single isomer, unassigned) [ER-808662]",exhibiting desired properties
8,CCC(C)N1CCCCC1C(=O)NC(C(=O)N(C)[C@H](/C=C(\C)C(=O)O)C(C)C)C(C)(C)C (stereo in doubt) [ER-808368],exhibiting desired properties
9,CC(C)OC(=O)[C@@H]1CCCN1C(=O)[C@@H]1CCCN1C[C@H](C(C)C)N(C)C(=O)[C@@H](NC(=O)[C@H]1CCCCN1C)C(C)(C)C [ER-807904],exhibiting desired properties
10,CCC(CC)(NC)C(=O)N[C@H](C(=O)N(C)[C@H](/C=C(\C)C(=O)O)C(C)C)C(C)(C)C [ER-807850],exhibiting desired properties
11,C/C(=C\[C@H](C(C)C)N(C)C(=O)[C@@H](NC(=O)[C@@H]1CCCCN1C)C(C)(C)C)C(=O)O [ER-807102],exhibiting desired properties
